From article PMC3285241 (ACS chemical neuroscience, 2011)
Where two headings read alike, the source gives them in different places.

Key:
[1] = target: Cav3.2 channel expressed in HEK293 cells (Homo sapiens, UniProt O95180); experiment: T-type calcium channel cell-based FDSS Ca2+ flux
Cav3.3 = Cav3.3 (Homo sapiens, UniProt Q9P0X4); experiment: Cav3.3 IonWorks Quattro population patch clamp electrophysiology; type: cell-based
[2] = test system: 68 GPCRs, ion channels and transporters; experiment: Ricerca Lead Profiling Screen; settings: 10 μM; significant = inhibition of radio ligand binding > 50%
sodium channel site 2 = experiment: Ricerca Lead Profiling Screen, sodium channel site 2; type: binding; settings: 10 μM
sigma 1 = sigma 1 (Homo sapiens, UniProt Q99720); experiment: Ricerca Lead Profiling Screen, sigma 1; type: binding; settings: 10 μM
Chain of sigma 1 (Q99720 whole entry): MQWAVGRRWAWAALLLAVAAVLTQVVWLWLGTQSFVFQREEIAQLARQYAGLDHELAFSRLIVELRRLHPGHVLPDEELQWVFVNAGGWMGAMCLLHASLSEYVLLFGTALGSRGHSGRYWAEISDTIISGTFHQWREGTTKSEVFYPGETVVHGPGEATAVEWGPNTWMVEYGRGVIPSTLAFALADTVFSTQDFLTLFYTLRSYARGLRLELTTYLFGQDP

L-type calcium channels = experiment: Ricerca Lead Profiling Screen, L-type calcium channel; type: binding; settings: @10 μM
N-type calcium channels = N-type calcium channels (Rattus norvegicus, UniProt Q02294); experiment: Ricerca Lead Profiling Screen, N-type calcium channel; type: binding; settings: read-out: % inhibition, N-type calcium channels
Chain of N-type calcium channels (Q02294 whole entry): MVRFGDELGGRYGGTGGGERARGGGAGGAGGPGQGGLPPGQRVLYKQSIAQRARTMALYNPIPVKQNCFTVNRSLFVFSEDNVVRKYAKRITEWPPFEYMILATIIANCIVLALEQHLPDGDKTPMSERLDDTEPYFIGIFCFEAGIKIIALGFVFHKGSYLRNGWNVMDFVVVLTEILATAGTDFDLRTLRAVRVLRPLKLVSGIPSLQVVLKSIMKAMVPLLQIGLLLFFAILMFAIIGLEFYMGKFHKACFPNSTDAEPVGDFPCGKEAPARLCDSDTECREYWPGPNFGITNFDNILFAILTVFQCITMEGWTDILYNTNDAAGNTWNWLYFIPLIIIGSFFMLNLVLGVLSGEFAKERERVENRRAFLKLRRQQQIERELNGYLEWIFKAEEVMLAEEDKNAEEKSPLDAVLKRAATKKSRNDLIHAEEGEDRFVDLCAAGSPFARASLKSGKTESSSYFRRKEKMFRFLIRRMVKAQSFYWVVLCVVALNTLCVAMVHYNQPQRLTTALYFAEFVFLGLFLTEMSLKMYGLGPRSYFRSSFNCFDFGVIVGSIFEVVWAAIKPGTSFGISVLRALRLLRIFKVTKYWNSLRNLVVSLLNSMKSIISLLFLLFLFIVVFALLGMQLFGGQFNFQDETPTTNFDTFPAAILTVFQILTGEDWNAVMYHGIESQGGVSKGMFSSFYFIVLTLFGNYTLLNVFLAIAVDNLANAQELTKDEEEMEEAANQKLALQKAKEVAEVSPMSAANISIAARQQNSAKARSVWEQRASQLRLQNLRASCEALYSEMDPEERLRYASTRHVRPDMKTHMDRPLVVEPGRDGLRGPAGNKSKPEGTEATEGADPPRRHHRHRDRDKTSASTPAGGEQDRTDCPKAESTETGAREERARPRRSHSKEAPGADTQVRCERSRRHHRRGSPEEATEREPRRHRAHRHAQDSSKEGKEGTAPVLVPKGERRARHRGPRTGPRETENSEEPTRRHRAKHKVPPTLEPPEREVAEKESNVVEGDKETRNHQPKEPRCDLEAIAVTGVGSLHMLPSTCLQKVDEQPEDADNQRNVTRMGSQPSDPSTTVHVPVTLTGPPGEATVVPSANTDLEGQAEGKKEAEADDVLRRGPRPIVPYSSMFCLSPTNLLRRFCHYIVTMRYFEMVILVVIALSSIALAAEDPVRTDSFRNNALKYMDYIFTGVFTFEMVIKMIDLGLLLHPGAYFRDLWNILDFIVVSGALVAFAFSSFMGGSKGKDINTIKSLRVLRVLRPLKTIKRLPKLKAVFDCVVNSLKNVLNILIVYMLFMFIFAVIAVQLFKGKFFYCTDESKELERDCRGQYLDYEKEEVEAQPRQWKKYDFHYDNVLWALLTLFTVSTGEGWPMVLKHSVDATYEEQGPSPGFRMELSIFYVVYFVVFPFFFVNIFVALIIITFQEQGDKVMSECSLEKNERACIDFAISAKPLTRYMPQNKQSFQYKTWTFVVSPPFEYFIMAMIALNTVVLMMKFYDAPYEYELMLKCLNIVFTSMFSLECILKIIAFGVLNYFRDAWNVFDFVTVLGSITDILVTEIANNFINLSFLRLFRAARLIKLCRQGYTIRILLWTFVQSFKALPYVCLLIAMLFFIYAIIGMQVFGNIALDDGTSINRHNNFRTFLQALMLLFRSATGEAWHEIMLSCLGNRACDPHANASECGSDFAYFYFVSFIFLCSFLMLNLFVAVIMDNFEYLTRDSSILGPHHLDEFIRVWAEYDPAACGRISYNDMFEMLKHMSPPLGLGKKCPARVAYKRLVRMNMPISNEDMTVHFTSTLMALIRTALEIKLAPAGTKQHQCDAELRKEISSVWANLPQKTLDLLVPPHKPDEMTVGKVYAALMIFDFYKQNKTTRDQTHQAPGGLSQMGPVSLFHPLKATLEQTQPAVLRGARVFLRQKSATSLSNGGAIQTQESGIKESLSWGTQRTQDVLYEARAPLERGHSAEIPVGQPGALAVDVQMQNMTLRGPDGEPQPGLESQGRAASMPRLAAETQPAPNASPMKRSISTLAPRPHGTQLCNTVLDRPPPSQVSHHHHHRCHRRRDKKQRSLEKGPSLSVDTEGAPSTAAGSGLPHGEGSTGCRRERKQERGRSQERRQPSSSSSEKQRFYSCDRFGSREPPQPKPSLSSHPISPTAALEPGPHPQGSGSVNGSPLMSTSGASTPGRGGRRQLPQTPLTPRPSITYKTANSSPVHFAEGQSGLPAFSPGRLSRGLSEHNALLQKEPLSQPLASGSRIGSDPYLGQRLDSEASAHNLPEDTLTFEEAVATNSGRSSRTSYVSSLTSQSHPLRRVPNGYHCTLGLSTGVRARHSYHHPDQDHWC

hERG = hERG (Homo sapiens, UniProt Q12809); experiment: Ricerca Lead Profiling Screen, hERG; type: binding
[3] = Plasma-brain exposure profile PK study; type: in vivo; settings: male, Sprague-Dawley, rat, intraperitoneal, 10 mg/kg
[4] = test system: T-type calcium currents in STN neurons; experiment: Brain slice voltage clamp, T-type calcium current in STN neurons; type: cell-based, rat
[5] = test system: low threshold spike (LTS) in STN neurons; experiment: Brain slice current clamp, low threshold spike; type: cell-based, rat; settings: 3 uM with 0.5 uM TTX, n = 5; control 18.1 ± 2.2 mV
[6] = test system: rebound burst activity in STN neurons; experiment: Brain slice current clamp, rebound burst activity in STN neurons; type: cell-based, rat
[7] = test system: haloperidol-induced catalepsy in rats; experiment: Haloperidol-induced catalepsy; type: in vivo, rat; settings: 1, 3, 10 and 30 mg/kg p.o.; haloperidol 0.75 mg/kg; comparable to A2A inhibitor 56.6 mg/kg p.o.
[8] = Brain and plasma concentrations across the catalepsy dose range; type: in vivo; settings: rat
in vivo = settings: male, Sprague-Dawley, rat, plasma, iv, 1 mg/kg
in vitro [9] = settings: rat, plasma, pH 7.4
in vitro [10] = settings: human, plasma, pH 7.4
in vitro [11] = settings: rat, liver microsomes, pH 7.4
in vitro [12] = settings: human, liver microsomes, pH 7.4
P450 2C9 = P450 2C9 (Homo sapiens, UniProt P11712); experiment: P450 inhibition 2C9
P450 1A2 = target: T1, P450 1A2 (Homo sapiens, UniProt P05177); experiment: P450 inhibition 1A2
T1 sequence (P05177 1-516): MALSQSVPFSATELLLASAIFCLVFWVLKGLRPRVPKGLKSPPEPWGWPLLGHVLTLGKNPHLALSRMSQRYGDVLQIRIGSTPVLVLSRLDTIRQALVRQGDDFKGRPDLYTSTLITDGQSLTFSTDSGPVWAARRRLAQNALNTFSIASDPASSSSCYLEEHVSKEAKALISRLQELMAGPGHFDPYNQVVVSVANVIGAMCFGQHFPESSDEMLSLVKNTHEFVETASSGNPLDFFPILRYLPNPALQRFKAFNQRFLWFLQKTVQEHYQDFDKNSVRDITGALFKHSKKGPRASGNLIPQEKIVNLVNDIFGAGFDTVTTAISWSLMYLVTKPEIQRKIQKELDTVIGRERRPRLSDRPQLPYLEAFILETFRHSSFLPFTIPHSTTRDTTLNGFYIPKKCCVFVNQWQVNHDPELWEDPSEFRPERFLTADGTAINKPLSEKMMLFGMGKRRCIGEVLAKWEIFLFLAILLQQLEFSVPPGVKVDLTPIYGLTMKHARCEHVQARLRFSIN

P450 2D6 = P450 2D6 (Homo sapiens, UniProt P10635); experiment: P450 inhibition 2D6
[13] = Intrinsic clearance in rat liver microsomes; settings: obtained from rat liver microsomes
[14] = no reference given; cited from earlier work
Cav3.2 = Cav3.2 (Homo sapiens, UniProt O95180); experiment: Cav3.2 IonWorks Quattro population patch clamp electrophysiology; type: cell-based; settings: Cav3 subtype not stated
Chain of Cav3.2 (O95180 whole entry): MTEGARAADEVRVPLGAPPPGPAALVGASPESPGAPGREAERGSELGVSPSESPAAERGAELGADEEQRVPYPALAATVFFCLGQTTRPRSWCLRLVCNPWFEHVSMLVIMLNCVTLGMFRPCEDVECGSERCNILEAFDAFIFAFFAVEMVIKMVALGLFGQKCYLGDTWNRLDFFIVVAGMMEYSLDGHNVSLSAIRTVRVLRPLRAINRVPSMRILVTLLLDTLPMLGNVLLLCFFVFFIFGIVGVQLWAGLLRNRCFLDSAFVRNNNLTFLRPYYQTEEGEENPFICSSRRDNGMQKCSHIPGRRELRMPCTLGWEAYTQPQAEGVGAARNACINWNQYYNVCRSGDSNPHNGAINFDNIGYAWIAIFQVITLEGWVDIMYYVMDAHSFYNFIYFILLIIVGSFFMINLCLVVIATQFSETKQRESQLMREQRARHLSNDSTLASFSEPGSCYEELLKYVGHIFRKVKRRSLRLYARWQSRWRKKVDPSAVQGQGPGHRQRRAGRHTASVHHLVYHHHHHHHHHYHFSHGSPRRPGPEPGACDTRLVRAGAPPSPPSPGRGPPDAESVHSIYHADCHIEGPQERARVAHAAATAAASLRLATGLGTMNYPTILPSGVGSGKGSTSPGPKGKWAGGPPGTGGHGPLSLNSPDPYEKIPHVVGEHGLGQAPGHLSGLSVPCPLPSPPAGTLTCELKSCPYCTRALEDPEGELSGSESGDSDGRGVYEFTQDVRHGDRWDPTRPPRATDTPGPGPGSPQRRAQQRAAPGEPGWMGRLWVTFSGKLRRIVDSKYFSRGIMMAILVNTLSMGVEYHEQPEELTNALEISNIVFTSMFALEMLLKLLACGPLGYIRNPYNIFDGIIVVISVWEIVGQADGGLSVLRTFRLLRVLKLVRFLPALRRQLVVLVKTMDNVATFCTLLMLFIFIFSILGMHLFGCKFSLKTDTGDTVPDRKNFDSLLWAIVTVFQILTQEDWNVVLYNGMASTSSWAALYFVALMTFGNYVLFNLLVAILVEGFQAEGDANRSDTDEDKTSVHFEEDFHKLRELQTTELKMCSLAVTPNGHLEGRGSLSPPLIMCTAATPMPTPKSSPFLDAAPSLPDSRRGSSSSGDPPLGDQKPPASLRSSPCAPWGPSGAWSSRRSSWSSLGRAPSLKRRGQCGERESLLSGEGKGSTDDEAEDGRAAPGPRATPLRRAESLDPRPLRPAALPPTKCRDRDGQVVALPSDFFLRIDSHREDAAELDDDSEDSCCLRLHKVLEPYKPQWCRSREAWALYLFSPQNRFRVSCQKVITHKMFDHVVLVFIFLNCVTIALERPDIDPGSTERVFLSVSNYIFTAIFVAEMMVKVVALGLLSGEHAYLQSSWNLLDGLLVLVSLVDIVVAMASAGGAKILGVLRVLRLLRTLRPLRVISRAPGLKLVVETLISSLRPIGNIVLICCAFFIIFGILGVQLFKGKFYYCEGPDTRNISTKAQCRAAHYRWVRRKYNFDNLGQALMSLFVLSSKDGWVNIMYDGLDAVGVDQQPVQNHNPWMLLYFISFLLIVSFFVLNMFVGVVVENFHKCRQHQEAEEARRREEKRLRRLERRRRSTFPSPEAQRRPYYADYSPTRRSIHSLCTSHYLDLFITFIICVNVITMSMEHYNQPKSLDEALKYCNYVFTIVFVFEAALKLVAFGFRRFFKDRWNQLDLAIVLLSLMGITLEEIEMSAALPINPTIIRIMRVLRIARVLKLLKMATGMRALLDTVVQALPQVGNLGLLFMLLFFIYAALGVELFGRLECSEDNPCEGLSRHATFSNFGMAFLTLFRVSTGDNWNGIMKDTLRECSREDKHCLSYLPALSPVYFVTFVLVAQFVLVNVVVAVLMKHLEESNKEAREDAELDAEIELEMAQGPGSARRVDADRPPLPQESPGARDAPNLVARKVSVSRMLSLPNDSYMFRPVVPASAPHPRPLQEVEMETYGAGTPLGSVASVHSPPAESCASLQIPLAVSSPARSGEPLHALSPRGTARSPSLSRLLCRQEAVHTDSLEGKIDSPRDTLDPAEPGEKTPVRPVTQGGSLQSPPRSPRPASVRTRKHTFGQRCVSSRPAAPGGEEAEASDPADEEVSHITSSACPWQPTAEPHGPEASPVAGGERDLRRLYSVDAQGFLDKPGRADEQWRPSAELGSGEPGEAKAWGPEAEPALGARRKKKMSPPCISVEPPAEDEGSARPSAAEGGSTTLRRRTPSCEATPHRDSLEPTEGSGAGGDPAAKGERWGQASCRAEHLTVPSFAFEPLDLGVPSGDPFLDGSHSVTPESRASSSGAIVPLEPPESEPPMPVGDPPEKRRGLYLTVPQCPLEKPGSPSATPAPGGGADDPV

[15] = read-out: IC50 in Ca2+ fluorescence assay, Cav3.2 HEK293, full CRC

Chain of Cav3.2 channel expressed in HEK293 cells (O95180 whole entry): as above

CC(C)(C)CCN1CCC[C@@H](NC(=O)COc2ccc(F)cc2Cl)C1 [CID45115614]
T-type Ca2+ channel inhibition, result in words ([1]; 3-amino piperidine library): devoid of activity

CC(C)(C)CCN1CC2C(CNC(=O)c3cc(Cl)cc(Cl)c3)C2C1 (stereo not shown) [ML218, 3,5-dichloro-N-((3-(3,3-dimethylbutyl)-3-azabicyclo[3.1.0]hexan-6-yl)methyl)benzamide]
IC50 [1]: 150 nM
IC50 (Cav3.3): 274 nM
Number of targets significantly bound in 68-assay panel [2]: only significantly bind two targets
Binding to sodium channel site 2 (sodium channel site 2): significantly bind
Binding to sigma 1 (sigma 1): significantly bind
% inhibition, L-type calcium channels (L-type calcium channels): 17%
inhibition at 10 µM (N-type calcium channels): 49%
inhibition at 10 µM (hERG): 48%
Kp [3]: 7.4
T-currents, % of the control value ([4]; 3 uM, n = 7): 45.1 ± 5.1%
Reduction of T-type Ca2+ current ([4]; 3 μM, voltage clamp, bath application): ~ 45%
Amplitude of LTS [5]: 8.7 ± 2.1 mV
Depression of rebound burst activity ([6]; 3 μM, -100 pA followed by depolarizing current): > 60%
Number of rebound spikes ([6]; 3 uM, n = 6, control 16.0 ± 2.8 spikes/burst): 5.7 ± 0.5 spikes/burst
Reversal of haloperidol-induced catalepsy [7]: reversed cataleptic behavior
[brain] ([8]; 3 mg/kg p.o.): 1.66 µM
[plasma] ([8]; 3 mg/kg p.o.): 98 nM
[brain] ([8]; 10 mg/kg p.o.): 5.03 µM
[plasma] ([8]; 10 mg/kg p.o.): 282 nM
[brain] ([8]; 30 mg/kg p.o.): 17.7 µM
[plasma] ([8]; 30 mg/kg p.o.): 1200 nM
MRT (in vivo): ~7 h
clearance (in vivo): 56 mL/min/kg
half-life (in vivo): 7 h
fraction unbound at 4 h (in vitro [9]): 0.091
fraction unbound at 4 h (in vitro [10]): 0.033
CLint scaled at 1 μM (in vitro [11]): 115 mL/min/kg
CLint scaled at 1 μM (in vitro [12]): 12.7 mL/min/kg
IC50 (P450 2C9): > 30000 nM
IC50 (P450 1A2): 10800 nM
IC50 (P450 2D6): 1700 nM
predicted hepatic clearance CLHEP [13]: 43 mL/min/kg

COCC(=O)O[C@]1(CCN(C)CCCc2nc3ccccc3[nH]2)CCc2cc(F)ccc2[C@@H]1C(C)C [compound 3, mibefradil]
Penetration into CNS [14]: poor penetration into CNS

CC(C)(C)Cc1nnc(NC(=O)COc2ccc(Cl)cc2Cl)o1 [compound 18]
IC50 [1, 15]: 810 nM
Potency in patch EP relative to Ca2+ fluorescence, in words (Cav3.2): significant right-shift in potency

CC(C)(C)CCN1CCC[C@H](NC(=O)COc2ccc(F)cc2Cl)C1 [compound 23]
IC50 [1, 15]: 2400 nM
